The values that follow come from patent publication EP1129112B1, “PEPTIDES CONTAINING A CHOLESTEROL RECOGNITION SEQUENCE AND THEIR USES” (Georgetown University, priority 1998, dated 1999).

Test [1] has as its system isolated mitochondria. The conditions noted are these: cited from earlier work.
In test [2] the target is T1, recombinant mPBR (Mus musculus, UniProt P50637).
T1 construct: inferred from vector pET15b with insertion at NdeI) (N); made in house; host or cells: Escherichia coli BL21(DE3), IPTG-induced; whole bacteria or bacterial membranes
In words: 3H-PK 11195 radioligand binding to IPTG-induced recombinant PBR in E. coli (Scatchard analysis). The conditions noted are these: 3H-PK 11195 binding, IPTG-induced E. coli transfected with mouse PBR cDNA.
Protocol: Binding specificity of the IPTG-induced PBR in E. coli was determined in binding studies where specific binding of ^3H-PK 11195 (1.0 nM) was measured in the presence of the indicated concentrations of the indicated ligands.
Radioligand binding assays- ^3H-1- (2-chlorophenyl)-N-methyl-N-(1-methyl-propyl)-3-isoquinolinecarboxamide (PK 11195) binding studies were performed as we previously described (Papadopoulos, V. et al. 1990, J. Biol. Chem. 265: 3772-3779; Garnier, M. et al. 1994, Mol. Pharm. 45:201-211). The dissociation constant (Kd) and the number of binding sites (Bmax) were determined by Scatchard plot analysis of the data using the LIGAND program (Munson, P. J. and Rodbard, D. 1980, Anal. Biochem. 107:220-239).

Test [3] deals with T2, PBR (Mus musculus, UniProt P50637).
T2 construct: inferred from vector pET15b with insertion at NdeI) (N); made in house; host or cells: Escherichia coli BL21(DE3), IPTG-induced; whole bacteria or bacterial membranes
In words: Ligand-induced release of 3H-cholesterol from membranes of IPTG-induced transformed bacteria. The format is biochemical. Conditions: Fig. 3F.
Protocol: ^3H-Cholesterol uptake by E. coli cells was examined using the indicated concentrations of control or IPTG-treated transformed bacteria incubated in the presence of 6.7 nM ^3H-cholesterol (50.0 Ci/mmol) for 60 min at 37°C. Specific cholesterol uptake is defined as IPTG-induced minus basal values, E. coli protoplasts were prepared from cells grown in LB at 37°C to the logarithmic phase of growth and centrifuged at 10,000g for 5 min. The cells were washed twice in 10mM Tris-HCl buffer [pH8.0] and the pellet was resuspended in a solution containing 20%(w/w) sucrose and 0.1M Tris-HCl [pH8.0]. The cells were then suspended in 1ml of buffer per 10 OD450 and mixed. Within 1 min lysozyme was added from a 2mg/ml stock solution in distilled water to a final concentration of 100 ug/ml at 37°C, and stirring was continued for the next 12 min. The cell suspension was diluted 1:10 with 0.1M Na2EDTA prewarmed to 37°C. Continuous stirring and slow dilution over 2.5 min prevented cell lysis. More than 99% of the cells became spherical within 10 minutes (Weiss, R. L. 1978, Meth. Cell Biol. 20:141-147).

As for “ODN: octadecaneuropeptide (DBI33-50) (KQATVGDINTERPGMLDF; Octadecaneuropeptide; UniProt P07108 33-50, looked up, fragment)”, the “ability to mimic the effect of DBI on mitochondrial steroidogenesis” value in test [1] is “not”.

The term Kd denotes a measure of binding affinity in units of concentration. With `CCC(C)N(C)C(=O)c1cc2ccccc2c(-c2ccccc2Cl)n1` (centres unmarked) [PK 11195, 1-(2-chlorophenyl)-N-methyl-N-(1-methyl-propyl)-3-isoquinolinecarboxamide], in test [2], the Bmax amounted to 0.23 pmol/mg protein and the Kd was 1.1 nM. The “release of cholesterol from cholesterol-loaded bacterial membranes” value in test [3] is reported as “cholesterol was liberated from the membranes”.

For the compound “TTN: triakontatetrapeptide, naturally occurring processing product of DBI (KTKPSDEEMLFIYGHYKQATVGDINTERPGMLDF; Triakontatetraneuropeptide; UniProt P07108 17-50, looked up, fragment)”, in test [1], the “ability to mimic the effect of DBI on mitochondrial steroidogenesis” value is listed as “able to mimic the effect of DBI”.
